Assay results published in the NIST ThermoML archive (doi:10.1016/j.fluid.2016.01.035).
± gives the expanded uncertainty stated by the source.

Legend:
[1] = Molar enthalpy of transition or fusion; conditions: Crystal; DSC
[2] = for vapor or sublimation pressure: Liquid, Transpiration method
[3] = molar enthalpy of vaporization or sublimation; conditions: 298.15 K; Crystal; TGA

SMILES | Molar enthalpy of transition or fusion [1] [kcal/mol] | Normal melting temperature ([2]; Crystal, DTA) [°C] | molar enthalpy [3] [kcal/mol] | vapor or sublimation pressure ([2]; 340.2 K) [kPa] | vapor or sublimation pressure ([2]; 343.2 K) [kPa] | vapor or sublimation pressure ([2]; 348.2 K) [kPa] | vapor or sublimation pressure ([2]; 353.1 K) [kPa] | vapor or sublimation pressure ([2]; 358.2 K) [kPa] | vapor or sublimation pressure ([2]; 363.2 K) [kPa] | vapor or sublimation pressure ([2]; 368.1 K) [kPa] | vapor or sublimation pressure ([2]; 370.2 K) [kPa] | vapor or sublimation pressure ([2]; 373.2 K) [kPa] | vapor or sublimation pressure ([2]; 376.2 K) [kPa]
COc1cc(C=CC(=O)O)ccc1O [4-hydroxy-3-methoxycinnamic acid] | 8.29 ± 0.191 | 172.8 ± 0.5 | 32.4 ± 0.478 |  |  |  |  |  |  |  |  |  | 
COC(=O)C=Cc1ccc(O)c(OC)c1 [methyl 3-(4-hydroxy-3-methoxyphenyl)-2-propenoate] | 5.62 ± 0.55 |  |  | 9.7e-05 ± 4e-06 | 0.000128 ± 6e-06 | 0.00021 ± 9e-06 | 0.000324 ± 1.4e-05 | 0.000513 ± 2.2e-05 | 0.000769 ± 3.3e-05 | 0.00117 ± 5e-05 | 0.0014 ± 6e-05 | 0.00179 ± 8e-05 | 0.00229 ± 0.0001
